A short description of this test: Pharmacological activity of the decomposition product.

With `Fc1ccc2[nH]c3c(c2c1)CCOC31CC=C(c2ccccc2)CC1` (stereo not shown) [6′-fluoro-4-phenyl-4′,9′-dihydro-3′H-spiro[cyclohex-3-ene-1,1′-pyrano[3,4-b]indole]], the Pharmacological activity entry was “pharmacologically inactive”.

The record behind these values is patent publication US10912763B2 (priority 2010, dated 2021).
